Experimental data as given in patent US20170051149A1, “AZOARYLS AS REVERSIBLY MODULATABLE TUBULIN INHIBITORS” (ECOLE NORMALE SUPERIEURE DE LYON, priority 2014, published 2017).
Structures can show the parent of a compound that is named as a salt.

How the values were obtained:
[1] = UV-Vis absorption spectra of trans and cis isomers (λstrong, εE, λiso); format: physicochemical; settings: PBS pH = 7.4, 20% MeCN
Description: A(λmeas, λirrad) is used to indicate the measured UV-Vis absorption spectrum in the range 340 nm<λmeas<650 nm, as a function of the irradiating wavelength λirrad once PSS(λirrad) has been established. UV-Vis measurement of A(λmeas, λirrad) was performed. It was considered that the PSS had been established when the absorbance profile ceased to alter under continued irradiation. An isosbestic point (wavelength λiso) was found for each compound by examining where the absorption A(λmeas) was invariant with respect to changing λirrad. A(λmeas, dark) was also acquired with samples that had been kept in the dark for at least several hours, and it was assumed that no significant spectral contribution from the cis isomer was present in these spectra. […]
HPLC (high-performance liquid chromatography) was then used as described in Part A to measure ε*E(λ) and ε*Z(λ) (the separated absorption profiles of trans and cis isomers respectively, in arbitrary units which are not intercomparable in an absolute sense). It was approximated that these spectra would be identical in shape if measured under the UV-Vis conditions, so once ε*E(λ) and ε*Z(λ) were scaled appropriately relative to each other, these scaled spectra could be used to deconvolute A(λmeas, λirrad). This approximation was considered useful especially in the regions of greatest spectral interest, ie. regions of relatively strong absorption (since only rather well-absorbed wavelengths will allow significant photoisomerisation under finite photon flux). To place the arbitrary-unit absorption spectra on an absolute scale, the maximal absorption wavelength λstrong of the trans-isomer was first selected by examining A(λmeas, dark): typically, λstrong≈380 nm. with Expressing A(λstrong, dark) in units M^−1cm^−1, ε*E(λstrong) was then scaled so that εE(λstrong)=A(λstrong, dark), giving:
εE(λ)=ε*E(λ)×[A(λstrong,dark)/ε*E(λstrong)]
and the isosbestic point was used to scale the cis-isomer spectrum as per:
εZ(λ)=ε*Z(λ)×[εE(λiso)/ε*Z(λiso)]
However, using A(λstrong, dark) was preferred, since A(λiso) was typically so much smaller that the standard deviation in the scaled absorptivities which it generated was far greater.
Absorption spectra in cuvette (“UV-Vis”) were acquired on a Varian CaryScan 50 (1 cm, 100 μL or 1 mL volume) with Peltier cell temperature control unit maintained at 37° C., in PBS at pH˜7.4 containing a low percentage of cosolvent if needed (typically 2% MeCN or 5% DMSO). A ThorLabs Polychrome V monochromator with a fibre optic cable output directed into the cuvette was used to perform photoisomerisation studies by UV-Vis spectrophotometry although single LEDs of approximately 10-20 mW output, 15-20° cone angle, and 10-15 nm bandwidth FWHM, obtained commercially from Roithner Lasertechnik GmbH, were equally successful in providing repeatable monochromatic photoisomerisation. Separated spectra of trans and […] forms were acquired from the inline Diode Array Detector on the AGILENT 1260 SL coupled LC-MS system after HPLC separation. Fluorescence spectrophotometry (excitation and emission spectra) were acquired on a Varian CaryEclipse fluorescence spectrophotometer.
By the above procedure, the trans- and cis-isomers of each species were separated by HPLC as described in Part A, and ε*E(λ) and ε*Z(λ) were measured on the inline ultraviolet/visible Diode Array Detector; these were then scaled as outlined above. The parameters λstrong, εE(λstrong) and λiso are tabulated for selected compounds below (Table 1).

[2] = thermal reversion halflife of spontaneous cis->trans isomerisation; format: physicochemical; settings: PBS pH = 7.4, 20% MeCN
From the text: Finally, trends in τ were ascertained by establishing the PSS at λstrong, then turning off the light source at time t0, and measuring A(λstrong, t) over time. Data were acquired for half an hour, or else the first three halflives (whichever was the shorter period), then fitted to the equation:
A(λstrong,t)=A(λstrong,dark)−[A(λstrong,dark)−A(λstrong,t0)]×e^−kt
This fit was used to return an in vitro halflife τ* for the cis->trans spontaneous thermal reversion isomerisation process, defined as τ=ln 2/k. It should be noted however, that azoaryl compounds' thermal reversion rates are known to depend strongly upon their microenvironment, such as pH and solvent/solvation effects^[7,38]. This was shown for compound (I.1), where a change of only 1.4 pH units gave a 25% change in τ*; note that different compounds are expected to respond very differently to changes in pH so no unifying trends are expected. Therefore the τ* acquired in vitro were considered appropriate only for qualitative intercomparison between samples (trend of τ* vs structure), rather than quantitative prediction of the τ values which might be experienced in cellulo or in vivo. Indeed, these in vitro τ* values appeared at least three times longer than what would have been expected based on in cellulo experiments where the pause time between activating pulses was varied.
Thermal reversion times were measured as described above. Those for selected compounds are presented below (Table 2).

HeLa cells = assay: cytotoxicity by crystal violet staining; format: cell-based; settings: 40 h
Description: Seven of the compounds according to the invention were selected for biological tests. Their cytotoxicity was assessed using crystal violet staining as adapted from standard procedure^[31]. Briefly, HeLa cells were seeded on 96-well plates, treated with the given concentrations of the selected compound, and exposed or not to the pulse protocol of illumination with light at 390 nm (pulses of 75 ms every 15 s). After 40 h cells were stained with crystal violet solution (0.5% crystal violet in 20% methanol) for 10 min. Unbound crystal violet was removed by rinsing with distilled water and cells were air-dried. Crystal violet was subsequently eluted from cells with 0.1 M sodium citrate in 50% ethanol. The absorbance of crystal violet is proportional to the cell number and was determined at 590 nm with a FLUOstar Omega microplate reader (BMG Labtech).
Each compound was tested at 6 doses: 100 nM, 500 nM, 1 μM, 2 μM, 5 μM and 10 μM. In order to ensure their solubility in the cell culture media, DMSO was used as a co-solvent, and to provide comparability between all samples the volume of DMSO was adjusted to obtain its final concentration as 1% in the cell culture media for all the compounds at all concentrations tested.
Results presented in Table 4 below are expressed as a fold growth relative to the control growth of the cells treated only with a co-solvent (1% DMSO), and are represented as a mean value from triplicates coming from a representative experiment.

[3] = 100 nM, 390 nm (75 ms every 15 s)
[4] = 500 nM, 390 nm (75 ms every 15 s)
[5] = 1 μM, 390 nm (75 ms every 15 s)
[6] = 2 μM, 390 nm (75 ms every 15 s)
[7] = 5 μM, 390 nm (75 ms every 15 s)
[8] = 10 μM, 390 nm (75 ms every 15 s)

SMILES	εE(λstrong) [1] [M⁻¹ cm⁻¹]	λiso [1] [nm]	λstrong [1] [nm]	τ, reversion time [2] [min]	mean fold growth (HeLa cells; [3]) [fold]	mean fold growth (HeLa cells; 100 nM, Dark) [fold]	mean fold growth (HeLa cells; [4]) [fold]	mean fold growth (HeLa cells; 500 nM, Dark) [fold]	mean fold growth (HeLa cells; [5]) [fold]	mean fold growth (HeLa cells; 1 μM, Dark) [fold]	mean fold growth (HeLa cells; [6]) [fold]	mean fold growth (HeLa cells; 2 μM, Dark) [fold]	mean fold growth (HeLa cells; [7]) [fold]	mean fold growth (HeLa cells; 5 μM, Dark) [fold]	mean fold growth (HeLa cells; [8]) [fold]	mean fold growth (HeLa cells; 10 μM, Dark) [fold]
COc1ccc(N=Nc2cc(OC)c(OC)c(OC)c2)cc1N [I.2, 2-methoxy-5-((3,4,5-trimethoxyphenyl)diazenyl)aniline]	11400	470	365	0.75	1.10	0.97	0.83	0.90	0.50	0.89	0.47	0.81	0.32	0.86	0.34	0.70
COc1ccc(N=Nc2cc(OC)c(OC)c(OC)c2)c(F)c1F [I.5, 1-(2,3-difluoro-4-methoxyphenyl)-2-(3,4,5-trimethoxyphenyl)diazene]	19578	450	365	134												
COc1cc(N=Nc2ccc(OC)c([N+](=O)[O-])c2F)cc(OC)c1OC [I.7, 1-(2-fluoro-4-methoxy-3-nitrophenyl)-2-(3,4,5-trimethoxyphenyl)diazene]	13600	455	365	50												
COc1ccc(N=Nc2cc(F)c(OC)c(F)c2)cc1 [I.9, 1-(3,5-difluoro-4-methoxyphenyl)-2-(4-methoxyphenyl)diazene]	11400	430	355	116												
COc1ccc(N=Nc2cc(OC)c(OC)c(OC)c2)cc1OC(=O)N1CCCCC1CNC(=O)[C@@H](N)CC(C)C (stereo partly drawn) [I.10, (2-methoxy 5-((3,4,5-trimethoxyphenyl)diazenyl)phenyl) 2-((L-leucinamido)methyl)piperidine 1-carboxylate 2,2,2-trifluoroacetate salt]					0.986	0.95	0.945	0.99	0.387	0.92	0.357	0.90	0.217	0.99	0.293	0.78
COc1ccc(N=Nc2cc(OC)c(OC)c(OC)c2)cc1OC [I.11, 1-(3,4-dimethoxyphenyl)-2-(3,4,5-trimethoxyphenyl)diazene]	18163	460	375	40												
COc1ccc(N=Nc2cc(OC)c(OC)c(OC)c2)c(OC)c1 [I.12, 1-(2,4-dimethoxyphenyl)-2-(3,4,5-trimethoxyphenyl)diazene]	12400	485	380	28												
COc1ccc(N=Nc2cc(OC)c(OC)c(OC)c2)cn1 [I.13, 2-methoxy-5-((3,4,5-trimethoxyphenyl)diazenyl)pyridine]	14200	440	355	270												
COc1cc(N=Nc2ccc(OC)c3ncccc23)cc(OC)c1OC [I.14, 8-methoxy-5-((3,4,5-trimethoxyphenyl)diazenyl)quinoline]	18000	485	390	3.3												
COc1ccc(N=Nc2cc(OC)c(OC)c(OC)c2)cc1NC(=O)[C@@H](N)CO [I.20, (2-methoxy 5-((3,4,5-trimethoxyphenyl)diazenyl)phenyl)) 1-L-serinamide 2,2,2-trifluoroacetate salt]					1.09	0.99	1.10	1.11	1.00	1.12	0.96	1.10	0.68	1.03	0.51	1.01
COc1ccc(N=Nc2cc(OC)c(OC)c(OC)c2)c(NC(C)=O)c1 [I.26, N-(5-methoxy-2-((3,4,5-trimethoxyphenyl)diazenyl)phenyl)acetamide]	16300	475	380	8.4												
COc1ccc(N=Nc2cc(OC)c(OC)c(OC)c2)cc1Br [I.27, 1-(3-bromo-4-methoxyphenyl)-2-(3,4,5-trimethoxyphenyl)diazene]	19540	445	365	129												
COc1ccc(N=Nc2cc(OC)c(OC)c(OC)c2)cc1C=O [I.28, 2-methoxy-5-((3,4,5-trimethoxyphenyl)diazenyl)benzaldehyde]	17813	452	360	248												
COc1ccc(N=Nc2cc(OC)c(OC)c(OC)c2)cc1C(=O)O [I.29, 2-methoxy-5-((3,4,5-trimethoxyphenyl)diazenyl)benzoic acid]	20102	447	365	104												
